{
  "source": "patent US12570656B2",
  "about": "“Purine compounds for treating disorders” (MARVEL BIOTECHNOLOGY, priority 2020, dated 2026)",
  "key": {"[1]": {"test": "Brain pharmacokinetics and brain/plasma ratio in male CD-1 mice (1 mg/kg i.v.)", "format": "in vivo", "conditions": "for concentration at 5 min / concentration at 0.25 h / concentration at 0.5 h / concentration at 1 h / concentration at 2 h / concentration at 4 h / concentration at 6 h / concentration at 8 h: intravenous", "procedure": "(§1) Male CD-1 mice were given either bolus 1 mg/kg i.v. or 3 mg/kg p.o. of the indicated compounds and plasma or brain concentrations were measured.\n(§2) Where: • C0 concentration extrapolated to time zero following an i.v. dose • tmax time at which maximum concentration is observed • Cmax maximum observed concentration • Apparent t1/2 apparent terminal half-life • AUC0-tlast area under the concentration vs time curve from time 0 to the time of the last measurable concentration • AUC0-inf area under the concentration vs time curve from time 0 to infinity • CL systemic clearance • MRT0-inf mean residence time from time zero to infinity • Vss steady-state volume of distribution • F oral bioavailability=(Dose^iv*AUC^po)/(Dose^po*AUC^iv)*100"}, "[2]": {"test": "Plasma pharmacokinetics in male CD-1 mice (1 mg/kg i.v. or 3 mg/kg p.o.)", "conditions": "CD-1, mouse, in vivo", "procedure": "as §1, §2"}, "[3]": {"conditions": "male, CD-1, mouse, iv, brain, i.v. 1 mg/kg"}},
  "note": "Values joined by “and” are separate entries in the source; they are usually repeats but may differ in a detail not shown here. Equal entries are not always repeated. Where two headings read alike, the source gives them in different places.",
  "data": [
    {"molecule": "CCn1c(=O)c2c(nc(/C=C/c3ccc(OC)c(OC)c3)n2C)n(CC)c1=O", "note": "[Istradefylline, reference compound]", "values": [
      {"measurement": "Brain concentration", "setting": "[1]; 1 mg/kg bolus i.v., 5 min, individual animals 1-3", "result": "423 ng/g and 691 ng/g"},
      {"measurement": "Brain concentration", "setting": "[1]; 1 mg/kg bolus i.v., 0.25 h, individual animals 1-3", "result": "474 ng/g and 418 ng/g"},
      {"measurement": "Brain concentration", "setting": "[1]; 1 mg/kg bolus i.v., 0.5 h, individual animals 1-3", "result": "230 ng/g and 235 ng/g"},
      {"measurement": "Brain concentration", "setting": "[1]; 1 mg/kg bolus i.v., 1 h, individual animals 1-3", "result": "209 ng/g and 237 ng/g"},
      {"measurement": "Brain concentration", "setting": "[1]; 1 mg/kg bolus i.v., 2 h, individual animals 1-3", "result": "180 ng/g and 156 ng/g"},
      {"measurement": "Brain concentration", "setting": "[1]; 1 mg/kg bolus i.v., 4 h, individual animals 1-3", "result": "76.8 ng/g and 79.5 ng/g"},
      {"measurement": "Brain concentration", "setting": "[1]; 1 mg/kg bolus i.v., 6 h, individual animals 1-3", "result": "50.1 ng/g and 32.6 ng/g"},
      {"measurement": "Brain concentration", "setting": "[1]; 1 mg/kg bolus i.v., 8 h, individual animals 1-3", "result": "22.2 ng/g and 17.1 ng/g"},
      {"measurement": "AUC0-tlast", "setting": "[1]; brain, i.v. 1 mg/kg", "result": 938, "unit": "ng·h/g"},
      {"measurement": "AUC(0-inf)", "setting": "[1]; brain, i.v. 1 mg/kg", "result": 1011, "unit": "ng·h/g"},
      {"measurement": "Kp at 5 min", "setting": "[1]; male, CD-1, mouse, brain and plasma, iv, 1 mg/kg, 1 mg/kg bolus i.v., 5 min, individual animals 1-3, read-out: Brain/plasma concentration ratio", "result": 0.726},
      {"measurement": "Kp at 5 min", "setting": "[1]; male, CD-1, mouse, brain and plasma, iv, 1 mg/kg, 1 mg/kg bolus i.v., 5 min, read-out: Brain/plasma concentration ratio, Mean", "result": 0.828},
      {"measurement": "Kp at 0.25 h", "setting": "[1]; male, CD-1, mouse, brain and plasma, iv, 1 mg/kg, 1 mg/kg bolus i.v., 0.25 h, individual animals 1-3, read-out: Brain/plasma concentration ratio", "result": 0.42},
      {"measurement": "Kp at 0.25 h", "setting": "[1]; male, CD-1, mouse, brain and plasma, iv, 1 mg/kg, 1 mg/kg bolus i.v., 0.25 h, read-out: Brain/plasma concentration ratio, Mean", "result": 0.516},
      {"measurement": "Kp at 0.5 h", "setting": "[1]; male, CD-1, mouse, brain and plasma, iv, 1 mg/kg, 1 mg/kg bolus i.v., 0.5 h, read-out: Brain/plasma concentration ratio, Mean", "result": 0.483},
      {"measurement": "Kp at 8 h", "setting": "[1]; male, CD-1, mouse, brain and plasma, iv, 1 mg/kg, 1 mg/kg bolus i.v., 8 h, individual animals 1-3, read-out: Brain/plasma concentration ratio", "result": 2.76},
      {"measurement": "Kp at 8 h", "setting": "[1]; male, CD-1, mouse, brain and plasma, iv, 1 mg/kg, 1 mg/kg bolus i.v., 8 h, read-out: Brain/plasma concentration ratio, Mean", "result": 2.25},
      {"measurement": "concentration at 5 min", "setting": "[1]; male, CD-1, mouse, brain, 1 mg/kg, 1 mg/kg bolus i.v., 5 min, individual animals 1-3, read-out: Brain concentration", "result": 545, "unit": "ng/g"},
      {"measurement": "concentration at 5 min", "setting": "[1]; male, CD-1, mouse, brain, 1 mg/kg, 1 mg/kg bolus i.v., 5 min, read-out: Brain concentration, Mean", "result": 553, "unit": "ng/g"},
      {"measurement": "concentration at 0.25 h", "setting": "[1]; male, CD-1, mouse, brain, 1 mg/kg, 1 mg/kg bolus i.v., 0.25 h, individual animals 1-3, read-out: Brain concentration", "result": 272, "unit": "ng/g"},
      {"measurement": "concentration at 0.25 h", "setting": "[1]; male, CD-1, mouse, brain, 1 mg/kg, 1 mg/kg bolus i.v., 0.25 h, read-out: Brain concentration, Mean", "result": 388, "unit": "ng/g"},
      {"measurement": "concentration at 0.5 h", "setting": "[1]; male, CD-1, mouse, brain, 1 mg/kg, 1 mg/kg bolus i.v., 0.5 h, individual animals 1-3, read-out: Brain concentration", "result": 372, "unit": "ng/g"},
      {"measurement": "concentration at 0.5 h", "setting": "[1]; male, CD-1, mouse, brain, 1 mg/kg, 1 mg/kg bolus i.v., 0.5 h, read-out: Brain concentration, Mean", "result": 279, "unit": "ng/g"},
      {"measurement": "concentration at 1 h", "setting": "[1]; male, CD-1, mouse, brain, 1 mg/kg, 1 mg/kg bolus i.v., 1 h, individual animals 1-3, read-out: Brain concentration", "result": 225, "unit": "ng/g"},
      {"measurement": "concentration at 1 h", "setting": "[1]; male, CD-1, mouse, brain, 1 mg/kg, 1 mg/kg bolus i.v., 1 h, read-out: Brain concentration, Mean", "result": 224, "unit": "ng/g"},
      {"measurement": "concentration at 2 h", "setting": "[1]; male, CD-1, mouse, brain, 1 mg/kg, 1 mg/kg bolus i.v., 2 h, individual animals 1-3, read-out: Brain concentration", "result": 171, "unit": "ng/g"},
      {"measurement": "concentration at 2 h", "setting": "[1]; male, CD-1, mouse, brain, 1 mg/kg, 1 mg/kg bolus i.v., 2 h, read-out: Brain concentration, Mean", "result": 169, "unit": "ng/g"},
      {"measurement": "concentration at 4 h", "setting": "[1]; male, CD-1, mouse, brain, 1 mg/kg, 1 mg/kg bolus i.v., 4 h, individual animals 1-3, read-out: Brain concentration", "result": 107, "unit": "ng/g"},
      {"measurement": "concentration at 4 h", "setting": "[1]; male, CD-1, mouse, brain, 1 mg/kg, 1 mg/kg bolus i.v., 4 h, read-out: Brain concentration, Mean", "result": 87.8, "unit": "ng/g"},
      {"measurement": "concentration at 6 h", "setting": "[1]; male, CD-1, mouse, brain, 1 mg/kg, 1 mg/kg bolus i.v., 6 h, individual animals 1-3, read-out: Brain concentration", "result": 39.8, "unit": "ng/g"},
      {"measurement": "concentration at 6 h", "setting": "[1]; male, CD-1, mouse, brain, 1 mg/kg, 1 mg/kg bolus i.v., 6 h, read-out: Brain concentration, Mean", "result": 40.8, "unit": "ng/g"},
      {"measurement": "concentration at 8 h", "setting": "[1]; male, CD-1, mouse, brain, 1 mg/kg, 1 mg/kg bolus i.v., 8 h, individual animals 1-3, read-out: Brain concentration", "result": 33.4, "unit": "ng/g"},
      {"measurement": "concentration at 8 h", "setting": "[1]; male, CD-1, mouse, brain, 1 mg/kg, 1 mg/kg bolus i.v., 8 h, read-out: Brain concentration, Mean", "result": 24.2, "unit": "ng/g"},
      {"measurement": "Kp at 1 h", "setting": "[1]; male, CD-1, mouse, brain/plasma, iv, 1 mg/kg, 1 mg/kg bolus i.v., 1 h, individual animals 1-3, read-out: Brain/plasma concentration ratio", "result": 0.534},
      {"measurement": "Kp at 1 h", "setting": "[1]; male, CD-1, mouse, brain/plasma, iv, 1 mg/kg, 1 mg/kg bolus i.v., 1 h, read-out: Brain/plasma concentration ratio, Mean", "result": 0.551},
      {"measurement": "Kp at 2 h", "setting": "[1]; male, CD-1, mouse, brain/plasma, iv, 1 mg/kg, 1 mg/kg bolus i.v., 2 h, individual animals 1-3, read-out: Brain/plasma concentration ratio", "result": 0.71},
      {"measurement": "Kp at 2 h", "setting": "[1]; male, CD-1, mouse, brain/plasma, iv, 1 mg/kg, 1 mg/kg bolus i.v., 2 h, read-out: Brain/plasma concentration ratio, Mean", "result": 0.655},
      {"measurement": "Kp at 4 h", "setting": "[1]; male, CD-1, mouse, brain/plasma, iv, 1 mg/kg, 1 mg/kg bolus i.v., 4 h, individual animals 1-3, read-out: Brain/plasma concentration ratio", "result": 0.87},
      {"measurement": "Kp at 4 h", "setting": "[1]; male, CD-1, mouse, brain/plasma, iv, 1 mg/kg, 1 mg/kg bolus i.v., 4 h, read-out: Brain/plasma concentration ratio, Mean", "result": 1},
      {"measurement": "Kp at 6 h", "setting": "[1]; male, CD-1, mouse, brain/plasma, iv, 1 mg/kg, 1 mg/kg bolus i.v., 6 h, read-out: Brain/plasma concentration ratio, Mean", "result": 0.96},
      {"measurement": "Kp", "setting": "[1]; male, CD-1, mouse, brain/plasma, iv, 1 mg/kg, i.v. 1 mg/kg, read-out: Brain/plasma AUC0-inf ratio", "result": 0.701},
      {"measurement": "Cmax", "setting": "[1]; [3]", "result": 553, "unit": "ng/g"},
      {"measurement": "Tmax", "setting": "[1]; [3]", "result": 5, "unit": "min"},
      {"measurement": "half-life", "setting": "[1]; male, CD-1, mouse, iv, brain, i.v. 1 mg/kg, read-out: Apparent t1/2 (converted)", "result": 2.1, "unit": "h"},
      {"measurement": "MRT inf", "setting": "[1]; male, CD-1, mouse, iv, brain, i.v. 1 mg/kg, read-out: MRT0-inf", "result": 2.96, "unit": "h"},
      {"measurement": "bioavailability", "setting": "[2]", "result": 30.9, "unit": "%"},
      {"measurement": "AUC(0-inf)", "setting": "[2]; iv, 1 mg/kg", "result": 1440, "unit": "ng·h/mL"},
      {"measurement": "AUC(0-t)", "setting": "[2]; iv, 1 mg/kg", "result": 1420, "unit": "ng·h/mL"},
      {"measurement": "Cmax", "setting": "[2]; iv, 1 mg/kg", "result": 745, "unit": "ng/mL"},
      {"measurement": "MRT inf", "setting": "[2]; iv, 1 mg/kg", "result": 1.96, "unit": "h"},
      {"measurement": "Tmax", "setting": "[2]; iv, 1 mg/kg", "result": 0.25, "unit": "h"},
      {"measurement": "Vd", "setting": "[2]; iv, 1 mg/kg", "result": 1.36, "unit": "L/kg"},
      {"measurement": "clearance", "setting": "[2]; iv, 1 mg/kg", "result": 11.6, "unit": "mL/min/kg"},
      {"measurement": "half-life", "setting": "[2]; iv, 1 mg/kg", "result": 1.35, "unit": "h"},
      {"measurement": "AUC(0-inf)", "setting": "[2]; po, 3 mg/kg", "result": 1340, "unit": "ng·h/mL"},
      {"measurement": "AUC(0-t)", "setting": "[2]; po, 3 mg/kg", "result": 1340, "unit": "ng·h/mL"},
      {"measurement": "Cmax", "setting": "[2]; po, 3 mg/kg", "result": 250, "unit": "ng/mL"},
      {"measurement": "MRT inf", "setting": "[2]; po, 3 mg/kg", "result": 3.82, "unit": "h"},
      {"measurement": "Tmax", "setting": "[2]; po, 3 mg/kg", "result": 1, "unit": "h"},
      {"measurement": "half-life", "setting": "[2]; po, 3 mg/kg", "result": 2.2, "unit": "h"}
    ]}
  ]
}
